One series has as its target T1, FXa (Homo sapiens, UniProt P00742).
T1 construct: purchased Enzymeresearch, Lake Oswego, OR, USA
Description: Enzymatic activity assay of coagulation factors, chromogenic substrate. Conditions: 40, 200, 1000 nM, 10 min pre-incubation, substrate S-2222, 405 nm. It counts as biochemical. The procedure: (§1) The enzymatic activity of RK22 and LL-37 against coagulation factors was measured using the chromogenic substrate method. In brief, 5 μL of FXa (Enzymeresearch, Lake Oswego, OR, USA) (final concentration 3 μg/mL) or thrombin (Enzymeresearch, Lake Oswego, OR, USA) (final concentration 0.1056 μg/mL) and 5 μL of sample (final concentration 40, 200, and 1000 nM) were incubated for 10 min in 96-well plates, respectively. Following incubation, thrombin substrate (S-2238, Chromogenix, Milano, Italy, 45 μg/mL) or FXa substrate (S-2222, Chromogenix, Milano, Italy, 90 μg/mL) dissolved with 90 μL of enzyme dynamic buffer (100 mM NaCl, 50 mM Tris, 5 mM CaCl2, pH 8.0) were added and absorbance was measured at 405 nm every 1 min for 90 min.

The target of a further series is T2, thrombin (Homo sapiens, UniProt P00734).
T2 construct: purchased Enzymeresearch, Lake Oswego, OR, USA
The description is as above. It counts as biochemical. Conditions: 40, 200, 1000 nM, 10 min pre-incubation, substrate S-2238, 405 nm. Here is the method: as §1

A further series has as its system washed platelets. Briefly: Platelet activity assay, flow cytometry. It counts as cell-based. The following applies: mouse washed platelets, 20, 10, 5, 2.5 μg/mL, 10 min, P-selectin. The procedure:
Platelets were isolated from the mice as described in a previous study with minor modifications. The effect of RK22 and LL-37 on platelet activity was detected by flow cytometry. Mouse blood was mixed with Tyrode’s buffer A (137 mM NaCl, 2 mM KCl, 0.3 mM NaH2PO4, 12 mM NaHCO3, 5.5 mM glucose, 0.35% BSA, 1 mM MgCl2, and 0.2 mM EDTA, pH 6.5) and centrifuged (150× g, 10 min, room temperature) to obtain platelet-rich plasma (PRP), which was then pelleted (400× g, 5 min, room temperature), washed with Tyrode’s buffer A, and finally resuspended in Tyrode’s buffer B (137 mM NaCl, 2 mM KCl, 0.3 mM NaH2PO4, 12 mM NaHCO3, 5.5 mM glucose, 0.35% BSA and 2 mM CaCl2, pH 7.4). Antibodies against P-selectin (Biolegend, San Diego, CA, USA) were added to the platelets, followed by incubation for 10 min at room temperature. Samples (20, 10, 5, and 2.5 μg/mL) or normal saline were added, respectively, and analyzed by flow cytometry (BD, LSRFortessa^TM, Franklin Lakes, NJ, USA).
On the technique in general: A flow cytometer gives signals particle by particle.

Another series concerns P. aeruginosa, ATCC9027. Type of series: cell-based, Pseudomonas aeruginosa. The following applies: RPMI 1640, 37 °C, 12–16 h, absorbance at 600 nm.
The test system of another series is E. coli, ATCC25922. It counts as cell-based, Escherichia coli. The following applies: RPMI 1640, 37 °C, 12–16 h, absorbance at 600 nm.
A further series has as its system S. aureus (ATCC6538). Briefly: microbe, parasite or virus in culture. Type of series: cell-based, Staphylococcus aureus. Here is the method:
(§2) The bacterial strains used in this study included Pseudomonas aeruginosa (P. aeruginosa, ATCC27853), Acinetobacter baumannii (A. baumannii, ATCC19606), Escherichia coli (E. coli, ATCC8739), and S. aureus (ATCC6538, two clinically isolated strains (SA220823 and SA15772)), and three clinically isolated methicillin-resistant strains (MRSA-Z, MRSA11, and MRSA22). All strains were grown in Luria-Bertani (LB) broth.
(§3) The minimum inhibitory concentration (MIC) for all strains was determined using the […] assay based on a previous study with minor modifications. Initially, strains in the exponential phase were diluted to a concentration of 2 × 10^5 CFU/mL using RPMI 1640 medium (Corning, New York, NY, USA). Next, 100 μL of the bacterial suspension was mixed with 100 μL of the sample solution (final concentration 0–200 μg/mL in RPMI 1640 medium) in 96-well plates. The plates were then incubated at 37 °C for 12–16 h. After incubation, the absorbance at 600 nm was measured, and the MIC was determined as the lowest concentration of the test sample in which no bacterial growth was detected in the well.

The test system of series [1] is SA15772 (clinically isolated S. aureus). Briefly: microbe, parasite or virus in culture. Type of series: cell-based, Staphylococcus aureus. Conditions: Staphylococcus aureus. Here is the method: as §2, §3
Series [2] concerns MRSA-Z (clinically isolated methicillin-resistant S. aureus). Briefly: microbe, parasite or virus in culture. Conditions: Staphylococcus aureus, MRSA. It counts as cell-based, Staphylococcus aureus. Here is the method: as §2, §3
Series [3] concerns MRSA11 (clinically isolated methicillin-resistant S. aureus). Description: microbe, parasite or virus in culture. It counts as cell-based, Staphylococcus aureus. The following applies: Staphylococcus aureus. The procedure:
as §2, §3

The test system of series [4] is SA220823 (clinically isolated S. aureus). Briefly: microbe, parasite or virus in culture. It counts as cell-based, Staphylococcus aureus. Conditions: Staphylococcus aureus. The procedure: as §2, §3
The test system of series [5] is MRSA22 (clinically isolated methicillin-resistant S. aureus). Briefly: microbe, parasite or virus in culture. Type of series: cell-based, Staphylococcus aureus. The following applies: Staphylococcus aureus. Here is the method: as §2, §3
For series [6], the system named is MRSA-Z. Briefly: S. aureus-induced bacteremia model. Type of series: in vivo, mouse. The following applies: RK22 8 mg/kg, vancomycin 4 mg/kg ip 1 h after infection, 4 h after administration. Here is the method:
(§4) S. aureus ATCC6538 or methicillin-resistant S. aureus MRSA-Z were diluted to a concentration of 1 × 10^9 CFU/mL with normal saline. Male C57BL/6 mice (6–8 weeks of age) were randomly divided into seven groups of 10–12 mice per group. S. aureus ATCC6538 (100 μL) or methicillin-resistant S. aureus MRSA-Z (200 μL) were injected intravenously. At the end of 1 h, mice received an intraperitoneal injection of normal saline, vancomycin (dissolved in saline with the concentration of 2 and 4 mg/kg), or RK22 (dissolved in saline with the concentration of 2, 4, and 8 mg/kg). At 4 h post-administration, the mice were sacrificed, and blood and lung samples were collected. Lungs were then weighed and placed in 1 mL of PBS and homogenized on ice with a tissue grinder. Homogenates and clarified blood were plated in LB agar culture medium and CFUs were counted after 24 h. For histopathological analysis, sections of lung were fixed with 4% paraformaldehyde, embedded in paraffin wax, and stained with H&E.

Series [7] relates to S. aureus ATCC6538. Description: S. aureus-induced bacteremia model. The following applies: RK22 8 mg/kg, vancomycin 4 mg/kg ip 1 h after infection, 4 h after administration. Type of series: in vivo, mouse. Here is the method:
as §4

The subject of series [8] is MRSA-Z. Description: Bacterial killing kinetic assay. It counts as cell-based, Staphylococcus aureus. The following applies: 10 × MIC, 6 h, RPMI 1640, 37 °C, CFU count, 3 individual experiments. Here is the method: (§5) The bactericidal killing kinetic assay was performed according to a previous study with minor modifications. Firstly, S. aureus ATCC6538 or methicillin-resistant S. aureus MRSA-Z was diluted to 2 × 10^5 CFU/mL using RPMI 1640 medium. Equal volumes of either RK22 (final concentration 1, 5, 10 × MIC) or vancomycin (Macklin, Shanghai, China) (final concentration 1, 5, 10 × MIC) solutions were added to the bacterial suspension. The mixtures were then incubated at 37 °C for different times (0, 15, 30, 60, 180, and 360 min). At each time point, the bacterial solution was inoculated on LB agar culture medium, and colony forming units (CFUs) were counted after 24 h.

For series [9], the system named is S. aureus ATCC6538. Briefly: Bacterial killing kinetic assay. Type of series: cell-based, Staphylococcus aureus. The following applies: RPMI 1640, 37 °C, CFU count, 3 individual experiments. Here is the method: as §5
Setting [10] is: P. aeruginosa ATCC9027 in Table 3.

Converted amounts (≈) assume the structure as drawn. Like-named read-outs stand apart in the source and are kept apart here. Residues, ends and D or L forms follow the SMILES beside them. No end group written: not given here.

T1 sequence (P00742 235-488 limits assumed): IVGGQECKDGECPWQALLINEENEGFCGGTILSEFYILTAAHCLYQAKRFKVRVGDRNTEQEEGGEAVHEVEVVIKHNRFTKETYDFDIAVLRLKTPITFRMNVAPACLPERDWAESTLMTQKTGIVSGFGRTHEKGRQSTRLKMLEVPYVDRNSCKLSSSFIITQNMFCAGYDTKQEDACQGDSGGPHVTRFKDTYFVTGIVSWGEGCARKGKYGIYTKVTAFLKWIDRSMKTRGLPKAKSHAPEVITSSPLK
T1 sequence (P00742 41-179 partner limits assumed): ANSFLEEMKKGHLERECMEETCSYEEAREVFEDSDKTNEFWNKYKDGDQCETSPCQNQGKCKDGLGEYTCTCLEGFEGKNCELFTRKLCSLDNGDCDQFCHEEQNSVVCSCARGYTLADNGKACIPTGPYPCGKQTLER

In the case of LL-37, the “effect on enzymatic activity of FXa” value on FXa was “significant potentiation activity”. Further, on thrombin, the “effect on enzymatic activity of thrombin” value is recorded as “significant potentiation activity”. The platelet activation entry with washed platelets was “significant and dose-dependent effects on platelet activation”.

`CC(C)C[C@H](NC(=O)[C@@H](NC(=O)[C@@H](NC(=O)[C@H](CS)NC(=O)[C@@H](NC(=O)[C@H](CCCCN)NC(=O)[C@H](CCCCN)NC(=O)[C@H](CCCCN)NC(=O)[C@H](CCCCN)NC(=O)[C@@H]1CCCN1C(=O)[C@H](CCCCN)NC(=O)[C@@H]1CCCN1C(=O)[C@H](CCCCN)NC(=O)[C@@H]1CCCN1C(=O)[C@H](CS)NC(=O)[C@H](CC(C)C)NC(=O)[C@@H](NC(=O)[C@H](C)NC(=O)[C@@H](N)CCCNC(=N)N)C(C)C)C(C)C)C(C)C)C(C)C)C(=O)O` [RA19] (H-RAVLCPKPKPKKKKVCVVL-OH; N-terminus and C-terminus assumed): the MIC entry with P. aeruginosa, ATCC9027 (P. aeruginosa ATCC27853 as printed in the text) is recorded as “exceeding 100 μg/mL”; in the series on E. coli, ATCC25922 (E. coli ATCC8739 as printed in the text), “exceeding 100 μg/mL”.

In the case of KSSNTKAKKKKKNN [KS14], the MIC was 50 µg/mL with S. aureus (ATCC6538); more than 100 µg/mL against P. aeruginosa, ATCC9027 (setting [10]); more than 100 µg/mL with E. coli, ATCC25922 (E. coli ATCC25922).

As to “KSKSKKPSKSKPKKKKTSVVQQELQDVISFDFGC [KS34]”, the MIC against P. aeruginosa, ATCC9027 (setting [10]) is more than 100 µg/mL; in the series with E. coli, ATCC25922 (E. coli ATCC25922), more than 100 µg/mL.

Take KTRRRNRKHKKTINTETVQI [KT20]: the MIC is 50 µg/mL against S. aureus (ATCC6538); more than 100 µg/mL in the series with P. aeruginosa, ATCC9027 (setting [10]); more than 100 µg/mL against E. coli, ATCC25922 (E. coli ATCC25922).

On to `CN[C@H](CC(C)C)C(=O)N[C@H]1C(=O)N[C@@H](CC(N)=O)C(=O)N[C@H]2C(=O)N[C@H]3C(=O)N[C@H](C(=O)N[C@H](C(=O)O)c4cc(O)cc(O)c4-c4cc3ccc4O)[C@H](O)c3ccc(c(Cl)c3)Oc3cc2cc(c3O[C@@H]2O[C@H](CO)[C@@H](O)[C@H](O)[C@H]2O[C@H]2C[C@](C)(N)[C@H](O)[C@H](C)O2)Oc2ccc(cc2Cl)[C@H]1O` [Vancomycin, vancomycin, reference compound], for which the MIC (in the series on S. aureus (ATCC6538) (Staphylococcus aureus); in series [1]; in [2]; in series [3]; in series [4]; in series [5]) was 1.56 µg/mL (≈ 1.08 µM) throughout. Moreover, the “infection-induced tissue injury in the lung (H&E)” value with MRSA-Z [6] is “significantly alleviated”. In addition, in the series with S. aureus ATCC6538 [7], the “infection-induced hemorrhage and inflammatory cell infiltration in the lung (H&E)” value is reported as “significantly alleviated”. Further, the “MRSA-Z inhibited / eradicated” value in the series on MRSA-Z [8] is on record as “about 80%”. The “time to a kill rate of more than 90%” value in the series with S. aureus ATCC6538 [9] (S. aureus ATCC6538, 5 × MIC) turned out to be 6 h; with S. aureus ATCC6538 [9] (S. aureus ATCC6538, 10 × MIC) it was 6 h.

For VFLICFSLISPASFENVRAKW [VF21], the MIC against P. aeruginosa, ATCC9027 (setting [10]) was more than 100 µg/mL; against E. coli, ATCC25922 (E. coli ATCC25922), more than 100 µg/mL.

The values are drawn from publication PMC10487658, “Identification and Characterization of RK22, a Novel Antimicrobial Peptide from Hirudinaria manillensis against Methicillin Resistant Staphylococcus aureus” (International Journal of Molecular Sciences, 2023).
